Experiment [1] addresses T1, h-TGR5 (Homo sapiens, UniProt Q8TDU6).
T1 construct: expressed in transfected cells
T1 sequence (Q8TDU6 1-330): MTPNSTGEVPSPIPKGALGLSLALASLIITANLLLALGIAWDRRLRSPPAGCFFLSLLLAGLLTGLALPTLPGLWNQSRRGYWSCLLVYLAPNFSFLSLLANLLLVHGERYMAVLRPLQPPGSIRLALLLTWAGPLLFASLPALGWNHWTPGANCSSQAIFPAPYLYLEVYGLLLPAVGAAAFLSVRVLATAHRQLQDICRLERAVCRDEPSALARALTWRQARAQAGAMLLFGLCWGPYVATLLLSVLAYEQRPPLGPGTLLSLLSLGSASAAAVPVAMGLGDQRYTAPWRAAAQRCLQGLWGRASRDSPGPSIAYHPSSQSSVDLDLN
Kind of experiment: TGR5 cAMP Assay using Cisbio cAMP Dynamic2 htrf kit (hTGR5CRE-luc HEK 293 cells). To be noted: h-TGR5 cAMP EC50, Table 1; read-out: cAMP (EC50). The class given is cell-based. The method, boiled down:
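[…], 4000 hTGR5CRE-luc HEK 293 cells per well, with 0.5 mM IBMX and d2-cAMP, were incubated 30 min at room temperature with compounds in 8-point half-log series, in quadruplicate.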

In experiment [2] the target is T2, human TGR5 (h-TGR5) (Homo sapiens, UniProt Q8TDU6).
T2 construct: expressed in transfected cells
T2 sequence (Q8TDU6 1-330): T1 sequence (Q8TDU6 1-330)
The experiment is described as follows: TGR5/CRE-Luciferiase Assay (HEK 293 hTGR5/CRE-Luc cells). The class given is cell-based. As to conditions: h-TGR5 CRE-Luc EC50, Table 1; read-out: CRE-Luc (EC50). The method, boiled down: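 HEK293 cells stably carrying hTGR5 and a CRE-luciferase reporter were exposed to serially diluted compounds (diluted in DMEM with 5% DMSO) for 6 h. Cells were then lysed in luciferase buffer, luminescence was read, and EC50 values were derived from dose-response curves.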

pEC50: −log10 of the molar value.

`COc1ccc(C(C)(C)c2cnc(SCc3c(F)cccc3Cl)n2-c2ccc(F)cc2)cc1Cl` [2-{[(2-chloro-6-fluorophenyl)methyl]thio}-5-{1-[3-chloro-4-(methyloxy)phenyl]-1-methylethyl}-1-(4-fluorophenyl)-1H-imidazole]: the pEC50 in experiment [1] and in experiment [2] was > 7.00 throughout.

As to `CC(C)NC(=O)NS(=O)(=O)c1ccc(CSc2ncc(C(C)(C)c3ccc(C(F)F)c(F)c3)n2-c2ccc(F)cc2)c(Cl)c1` [3-chloro-4-({[5-{1-[4-(difluoromethyl)-3-fluorophenyl]-1-methylethyl}-1-(4-fluorophenyl)-1H-imidazol-2-yl]thio}methyl)-N-{[(1-methylethyl)amino]carbonyl} benzenesulfonamide], the pEC50 in experiment [1] and in experiment [2] was 6.00 to 7.00 each time.

On to `CC(C)(c1ccc(F)c(F)c1)c1cnc(SCc2ccc(S(=O)(=O)NC(=O)NN3CCCC3)cc2Cl)n1-c1ccc(F)c(Cl)c1` [3-chloro-4-[({1-(3-chloro-4-fluorophenyl)-5-[1-(3,4-difluorophenyl)-1-methylethyl]-1H-imidazol-2-yl}thio)methyl]-N-[(pyrrolidin-1-ylamino)carbonyl]benzenesulfonamide], for which the pEC50 in experiment [1] was 5.00 to 6.00; in experiment [2], 6.00 to 7.00.

On to `CC(C)(c1ccc(S(N)(=O)=O)c(Cl)c1)c1cnc(SCc2ccc(Cl)c(-c3nnn[nH]3)c2)n1-c1ccc(F)c(F)c1` [2-chloro-4-{1-[2-({[4-chloro-3-(1H-tetrazol-5-yl)phenyl]methyl}thio)-1-(3,4-difluorophenyl)-1H-imidazol-5-yl]-1-methylethyl}benzenesulfonamide], for which the pEC50 in experiment [1] and in experiment [2] was 6.00 to 7.00 throughout.

Consider `COc1cc(C(C)(C)c2cnc(SCc3ccc(S(=O)(=O)NC(=O)NN4CCOCC4)cc3Cl)n2-c2ccc(F)cc2)ccc1Cl` [3-chloro-4-({[5-{1-[4-chloro-3-(methyloxy)phenyl]-1-methylethyl}-1-(4-fluorophenyl)-1H-imidazol-2-yl]thio}methyl)-N-[(morpholin-4-ylamino)carbonyl]benzenesulfonamide], for which the pEC50 in experiment [1] is > 7.00; in experiment [2], 6.00 to 7.00.

Consider `CC(C)(c1ccc(Cl)c(Cl)c1)c1cnc(SCc2ccc(C(=O)NCCc3c[nH]cn3)cc2F)n1-c1ccc(F)cc1` [4-[({5-[1-(3,4-dichlorophenyl)-1-methylethyl]-1-(4-fluorophenyl)-1H-imidazol-2-yl}thio)methyl]-3-fluoro-N-[2-(1H-imidazol-4-yl)ethyl]benzamide], for which the negative logarithm of the EC50 (pEC50) in experiment [1] and in experiment [2] was 6.00 to 7.00 each time.

Regarding `COc1cc(-n2c(C(C)(C)c3ccc(F)c(Cl)c3)cnc2SCc2c(F)cc(CCCN(C)C)cc2F)ccc1F` [3-{4-[({5-[1-(3-chloro-4-fluorophenyl)-1-methylethyl]-1-[4-fluoro-3-(methyloxy)phenyl]-1H-imidazol-2-yl}thio)methyl]-3,5-difluorophenyl}-N,N-dimethylpropan-1-amine], the pEC50 in experiment [1] and in experiment [2] was > 7.00 throughout.

With `CC(C)(c1ccc(Cl)c(Cl)c1)c1cnc(SCc2cc(S(N)(=O)=O)c(Cl)cc2Cl)n1-c1ccc(F)cc1` [2,4-dichloro-5-[({5-[1-(3,4-dichlorophenyl)-1-methylethyl]-1-(4-fluorophenyl)-1H-imidazol-2-yl}thio)methyl]benzenesulfonamide], the pEC50 in experiment [1] is 6.00 to 7.00; in experiment [2], > 7.00.

Take `CC(C)(c1ccc(Cl)c(Cl)c1)c1cnc(SCc2ccc(F)c(C(N)=O)c2)n1-c1ccc(F)cc1` [5-[({5-[1-(3,4-dichlorophenyl)-1-methylethyl]-1-(4-fluorophenyl)-1H-imidazol-2-yl}thio)methyl]-2-fluorobenzamide]: the pEC50 in experiment [1] and in experiment [2] was 6.00 to 7.00 throughout.

In the case of `Cc1cc(-n2c(C(C)(C)c3ccc(Cl)c(Cl)c3)cnc2SCc2ccc(S(=O)(=O)NC(=O)NN3CCCC3)cc2Cl)ccc1F` [3-chloro-4-[({5-[l-(3,4-dichlorophenyl)-1-methylethyl]-1-(4-fluoro-3-methylphenyl)-1H-imidazol-2-yl}thio)methyl]-N-[(pyrrolidin-1-ylamino)carbonyl]benzenesulfonamide], the negative-log EC50 (pEC50) in experiment [1] and in experiment [2] was 6.00 to 7.00 each time.

As to `CC(C)(c1ccc(Cl)c(Cl)c1)c1cnc(CCc2c(F)cc(C(=O)NCCS(=O)(=O)O)cc2Cl)n1-c1ccc(F)cc1` [2-({[3-chloro-4-(2-{5-[1-(3,4-dichlorophenyl)-1-methylethyl]-1-(4-fluorophenyl)-1H-imidazol-2-yl}ethyl)-5-fluorophenyl]carbonyl}amino)ethanesulfonic acid], the pEC50 in experiment [1] and in experiment [2] was > 7.00 each time.

Consider `COc1cc(C(C)(C)c2cnc(SCc3c(F)cc(C(=O)NCCS(=O)(=O)O)cc3F)n2-c2ccc(F)cc2)ccc1Cl` [2-({[4-({[5-{1-[4-chloro-3-(methyloxy)phenyl]-1-methylethyl}-1-(4-fluorophenyl)-1H-imidazol-2-yl]thio}methyl)-3,5-difluorophenyl]carbonyl}amino) ethanesulfonic acid], for which the pEC50 in experiment [1] and in experiment [2] was > 7.00 each time.

Take `COc1cc(C(C)(C)c2c(C)nc(SCc3c(F)cccc3Cl)n2-c2ccc(F)cc2)ccc1Cl` [2-{[(2-chloro-6-fluorophenyl)methyl]thio}-5-{1-[4-chloro-3-(methyloxy)phenyl]-1-methylethyl}-1-(4-fluorophenyl)-4-methyl-1H-imidazole]: the pEC50 in experiment [1] and in experiment [2] was 6.00 to 7.00 throughout.

With `CC(C)(c1ccc(Cl)c(Cl)c1)c1cnc(SCc2c(F)cc(-c3nnn[nH]3)cc2F)n1-c1ccc(F)cc1` [5-{4-[({5-[1-(3,4-dichlorophenyl)-1-methylethyl]-1-(4-fluorophenyl)-1H-imidazol-2-yl}thio)methyl]-3,5-difluorophenyl}-1H-tetrazole], the pEC50 in experiment [1] and in experiment [2] was 6.00 to 7.00 each time.

For `COc1cc(C(C)(C)c2cnc(SCc3c(F)cc(-c4noc(=O)[nH]4)cc3F)n2-c2ccc(F)cc2)ccc1Cl` [3-[4-({[5-{1-[4-chloro-3-(methyloxy)phenyl]-1-methylethyl}-1-(4-fluorophenyl)-1H-imidazol-2-yl]thio}methyl)-3,5-difluorophenyl]-1,2,4-oxadiazol-5(4H)-one], the pEC50 in experiment [1] and in experiment [2] was > 7.00 each time.

With `COc1cc(-n2c(C(C)(C)c3ccc(S(N)(=O)=O)c(Cl)c3)cnc2SCc2ccc(C(=O)NCCS(=O)(=O)O)cc2F)ccc1F` [2-{[(4-{[(5-{1-[4-(aminosulfonyl)-3-chlorophenyl]-1-methylethyl}-1-[4-fluoro-3-(methyloxy)phenyl]-1H-imidazol-2-yl)thio]methyl}-3-fluorophenyl)carbonyl]amino}ethanesulfonic acid], the pEC50 in experiment [1] and in experiment [2] was > 7.00 throughout.

For `COc1cc(C(C)(C)c2cnc(SCc3ccc(S(=O)(=O)NC(=O)NN4CCCC4)cc3Cl)n2-c2ccc(F)c(F)c2)ccc1Cl` [3-chloro-4-({[5-{1-[4-chloro-3-(methyloxy)phenyl]-1-methylethyl}-1-(3,4-difluorophenyl)-1H-imidazol-2-yl]thio}methyl)-N-[(pyrrolidin-1-ylamino)carbonyl]benzenesulfonamide], the pEC50 in experiment [1] and in experiment [2] was 6.00 to 7.00 throughout.

Consider `COc1cc(C(C)(C)c2cnc(SCc3ccc(S(=O)(=O)NC(=O)Nc4nccs4)cc3Cl)n2-c2ccc(F)cc2)ccc1Cl` [3-chloro-4-({[5-{1-[4-chloro-3-(methyloxy)phenyl]-1-methylethyl}-1-(4-fluorophenyl)-1H-imidazol-2-yl]thio}methyl)-N-[(1,3-thiazol-2-ylamino)carbonyl]benzenesulfonamide], for which the pEC50 in experiment [1] and in experiment [2] was 6.00 to 7.00 each time.

For the compound `COc1ccc(C(C)(C)c2cnc(SCc3ccc(S(=O)(=O)NC(=O)NC(C)C)cc3Cl)n2-c2ccc(F)cc2)cc1Cl` [3-chloro-4-({[5-{1-[3-chloro-4-(methyloxy)phenyl]-1-methylethyl}-1-(4-fluorophenyl)-1H-imidazol-2-yl]thio}methyl)-N-{[(1-methylethyl)amino]carbonyl}benzenesulfonamide], the pEC50 in experiment [1] and in experiment [2] was 6.00 to 7.00 throughout.

Turning to `CC(C)(c1ccc(F)c(F)c1)c1cnc(SCC2CCN(C(=O)NN3CCCC3)CC2)n1-c1ccc(F)cc1` [4-[({5-[1-(3,4-difluorophenyl)-1-methylethyl]-1-(4-fluorophenyl)-1H-imidazol-2-yl}thio)methyl]-N-pyrrolidin-1-ylpiperidine-1-carboxamide], the pEC50 in experiment [1] and in experiment [2] was 6.00 to 7.00 each time.

With `CC(C)(c1ccc(F)c(F)c1)c1cnc(SCC2CCN(S(C)(=O)=O)CC2)n1-c1ccc(F)cc1` [4-[({5-[1-(3,4-difluorophenyl)-1-methylethyl]-1-(4-fluorophenyl)-1H-imidazol-2-yl}thio)methyl]-1-(methylsulfonyl)piperidine], the values for the pEC50 in experiment [1] and in experiment [2] were 6.00 to 7.00 and > 7.00, respectively.

For the compound `CC(C)NC(=O)NS(=O)(=O)c1ccc(CSc2ncc(C(C)(C)c3ccc(F)c(C#N)c3)n2-c2ccc(F)cc2)c(Cl)c1` [3-chloro-4-[({5-[1-(3-cyano-4-fluorophenyl)-1-methylethyl]-1-(4-fluorophenyl)-1H-imidazol-2-yl}thio)methyl]-N-{[(1-methylethyl)amino]carbonyl}benzenesulfonamide], the negative logarithm of the EC50 (pEC50) in experiment [1] and in experiment [2] was 6.00 to 7.00 throughout.

(Values after patent US8785488B2 (Exelixis Patent Company LLC, priority 2009, dated 2014).)
